Tests used:
Format in all cases: in vivo, Sprague-Dawley rats
[1] = system: rat model of diabetic erectile dysfunction; test: Intracavernosal pressure measurement on electrical stimulation of the cavernosal nerve; details: diabetic rats, daily oral C3G 10 mg/kg for 8 weeks
Method: (§1) Thirty-six 12-wk-old male Sprague-Dawley rats were treated under a protocol approved by the Institutional Animal Care and Use Committee (CUMC-2010-0137-02) and handled according to NIH guidelines. Rats were divided equally into three groups (n=12 in each): control, diabetes (DM), and diabetes with C3G concentration materials treatment (DM+C3G). All rats in the DM and DM+C3G groups received a single intraperitoneal injection of streptozotosin (50 mg/kg). Blood glucose and body weight were monitored weekly and significant diabetes (serum glucose >250 mg/dl) was confirmed in all rats within 1 wk. The diabetic serum level was maintained throughout the experiment. Four weeks after the induction of diabetes, rats in the DM+C3G group were treated with daily oral C3G (10 mg/kg) dissolved in water for 8 weeks. After the 12 weeks, intracavernosal pressure measurement (ICP) was performed, and after ICP measurement, the skin-denuded middle part of the penile shafts was cut and fixed overnight in 10% formalin, washed, and stored in 70% alcohol at 4° C. until processed for paraffin-embedded tissue sectioning (5 μm). Tissue was stored at −80° C. until processing.
Rats were anaesthetized with an intraperitoneal injection of 0.2 mL tiletamine (Zoletil®). […] Both mean arterial pressure (MAP) and ICP were continuously monitored during electrical stimulation. […]

nNOS = nNOS protein expression, Western blot of corporal tissue; details: C3G treatment group versus DM group, corrected against actin
Method: as §1, with “After the 12 weeks, intracavernosal pressure measurement (ICP) was performed, and after ICP measurement, the skin-denuded middle part of the penile shafts was cut and fixed overnight in 10% formalin, washed, and stored in 70% alcohol at 4° C. until processed for paraffin-embedded tissue sectioning (5 μm). Tissue was stored at −80° C. until processing.” left out
(§2) The homogenized buffer solution was placed on ice for 15 min and centrifuged at 4° C. for 13,000 rpm for 15 minutes. […] 30 μg of the quantitative protein was denatured at 95° C. for 5 min and electrophoresis was performed on a 12% discontinuous sodium dodecylsulfate-polyacrylamide gel (SDS-PAGE). […] Chemiluminescence was detected using enhanced chemiluminescence Western blotting detection reagents and densitometric assessment of the bands on the autoradiogram was performed using Bio1D software (version 97; Vilber Lourmat, France). […]

[2] = system: 8-OHdG in corpora tissues; test: Measurement of 8-OHdG (oxidative stress) by ELISA; details: diabetic rats, daily oral C3G 10 mg/kg for 8 weeks; DM 0.917±0.247, normal 0.140±0.13
Method: as §1, with “After the 12 weeks, intracavernosal pressure measurement (ICP) was performed, and after ICP measurement, the skin-denuded middle part of the penile shafts was cut and fixed overnight in 10% formalin, washed, and stored in 70% alcohol at 4° C. until processed for paraffin-embedded tissue sectioning (5 μm). Tissue was stored at −80° C. until processing.” left out
Oxidative stress in corpora tissues was evaluated by quantifying the levels of 8-hydroxy-2-deoxyguanosine (8-OHdG) as oxidatively modified DNA. […] Levels of 8-OHdG were measured with a DNA oxidation kit (Highly Sensitive 8-OHdG Check ELISA; Japan Institute for the Control of Aging, Fukuroi, Japan) according to the manufacturer's protocol. […] After the final color was developed with the addition of 3,3′,5,5′-tetramethylbenzidine, absorbance was measured at 450 nm. Tissue sample concentration was calculated from a standard curve and was corrected for DNA concentration.

eNOS = eNOS protein expression, Western blot of corporal tissue; details: C3G treatment group versus DM group, corrected against actin
Method: as §1, with “After the 12 weeks, intracavernosal pressure measurement (ICP) was performed, and after ICP measurement, the skin-denuded middle part of the penile shafts was cut and fixed overnight in 10% formalin, washed, and stored in 70% alcohol at 4° C. until processed for paraffin-embedded tissue sectioning (5 μm). Tissue was stored at −80° C. until processing.” left out
as §2

[3] = system: smooth muscle and collagen in corporal tissue; test: Masson's trichrome staining of cavernosal tissue
Method: as §1
After ICP, the skin denuded middle part of the penile shafts were fixed overnight in 10% formalin, washed, and stored in 70% alcohol at 4° C. until processed for paraffin-embedded tissue sectioning (5 μm). The cavernosal tissue was obtained for the Masson's trichrome staining. After staining, the color distribution of the muscle tissue was approximated by using the Adobe Photoshop CS 8.0. After the entire color distribution of the image was calculated, we selected the muscle tissue distribution, expressed as the color red. There were somewhat standard deviations in our calculation because of color overlays and ambiguity of the color spectrum of the muscle tissues.

[4] = system: apoptosis in corporal tissue; test: TUNEL assay for apoptosis; details: diabetic rats, daily oral C3G 10 mg/kg for 8 weeks; DM 39.6±4.6, control 15.3±3.0
Method: as §1, with “After the 12 weeks, intracavernosal pressure measurement (ICP) was performed, and after ICP measurement, the skin-denuded middle part of the penile shafts was cut and fixed overnight in 10% formalin, washed, and stored in 70% alcohol at 4° C. until processed for paraffin-embedded tissue sectioning (5 μm). Tissue was stored at −80° C. until processing.” left out
To assess apoptosis in the corpora tissues, the terminal deoxynucleotidyl transferase mediated dUTP nick end labeling (TUNEL) assay was performed using Apop Tag In Situ Apoptosis Detection Kits (Millipore Co., MA, US). […] The number of cells positive for the TUNEL assay was counted and the difference among the groups was assessed. For the count of cells positive for the TUNEL assay, 5 sites were selected randomly from a slide of each group, and the number of cells positive for the TUNEL assay was counted as the average of 5 sites under a light microscope at 400× magnification.

SOD = SOD protein expression, Western blot of corporal tissue; details: DM group treated with C3G
Method: as §1, with “After the 12 weeks, intracavernosal pressure measurement (ICP) was performed, and after ICP measurement, the skin-denuded middle part of the penile shafts was cut and fixed overnight in 10% formalin, washed, and stored in 70% alcohol at 4° C. until processed for paraffin-embedded tissue sectioning (5 μm). Tissue was stored at −80° C. until processing.” left out
The homogenized buffer solution was placed on ice for 15 min and centrifuged at 4° C. for 13,000 rpm for 15 minutes. […] 30 μg of the quantitative protein was denatured at 95° C. for 5 min and electrophoresis was performed on a 12% discontinuous sodium dodecylsulfate-polyacrylamide gel (SDS-PAGE). […] Chemiluminescence was detected using enhanced chemiluminescence Western blotting detection reagents and densitometric assessment of the bands on the autoradiogram was performed using Bio1D software (version 97; Vilber Lourmat, France).

[5] = Serum glucose of streptozotosin-induced diabetic rats; details: DM+C3G group
Method: as §1

[6] = C3G treatment group versus DM group

## OC[C@H]1O[C@@H](Oc2cc3c(O)cc(O)cc3[o+]c2-c2ccc(O)c(O)c2)[C@H](O)[C@@H](O)[C@@H]1O [C3G, Cyanidin-3-O-β-d-glucopyranoside]
[1]; DM group 0.32 ± 0.06, control 0.77 ± 0.05
  ICP/MAP ratio: 0.55 ± 0.11
[1]; cavernosal nerve stimulation, DM group 35.4 ± 4.5, control 83.3 ± 1.9
  Peak ICP: 58.0 ± 4.6
nNOS
  nNOS protein level (western blot, densitogram): levels increased
[2]
  8-OHdG in the corpora tissue by ELISA: 0.626±0.423
eNOS
  eNOS protein level (western blot, densitogram): levels increased
[3]; [6]
  collagen content of corpora tissues: collagen content decreased
  smooth muscle content of corpora tissues: smooth muscle content increased
[3]; diabetic rats, daily oral C3G 10 mg/kg for 8 weeks, DM 10.6±4.6, control 27.3±3.0
  muscle/collagen ratio: 21.8±1.7
[4]
  mean apoptotic index ± standard deviation (TUNEL): 21.3±1.7
SOD
  SOD expression (western blot): expressed more in the DM group treated with C3G than in the control group
[5]; 4 wk after diabetes induction (start of daily oral C3G 10 mg/kg)
  Serum glucose: 462 ± 90 mg/dL
[5]; 8 wk, daily oral C3G 10 mg/kg from week 4
  Serum glucose: 448 ± 143 mg/dL
[5]; 12 wk, daily oral C3G 10 mg/kg for 8 weeks
  Serum glucose: 469 ± 163 mg/dL
[5]; Pre-DM induction (before C3G treatment)
  Serum glucose: 141 ± 13 mg/dL

Reference: patent US9040106B2, “Pharmaceutical composition for preventing or treating diabetic erectile dysfunction comprising C3G or extract of mulberry containing C3G” (CATHOLIC UNIVERSITY INDUSTRY-ACADEMIC COOPERATION FOUNDATION, priority 2011, dated 2015)
